According to article PMC6664820, “Novel natural and synthetic inhibitors of solute carriers SGLT1 and SGLT2” (Pharmacology Research & Perspectives, 2019):
Non-standard residues stand in square brackets, D forms with d. Residues, ends and D or L forms follow the SMILES beside them. pGlu = O=C1CC[CH](C(=O)O)N1

What was measured:
SGLT1 = target: T1, SGLT1 (Homo sapiens, UniProt P13866); experiment: SGLT1 inhibition assay for validation of screening hits and similar compounds (1‐NBD‐glucose uptake, CHO‐hSGLT1 cells); format: cell-based; set-up: activity: dose or concentration left out as unconfirmed; conditions: for SGLT1 inhibition / inhibition at 50 µM: mean inhibition with 50 μmol/L inhibitor; for remaining activity at 5 µM / remaining activity at 50 µM: 0.5 h, concentration not given, read-out: NORMALIZED SGLT1 ACTIVITY (%); for remaining activity at 5 µM / remaining activity at 50 µM / activity: mean; for activity: compound, normalized 1-NBD-glucose uptake, CHO-hSGLT1 cells; for inhibition at 50 µM: read-out: SGLT1 inhibition
T1 sequence (P13866 1-664): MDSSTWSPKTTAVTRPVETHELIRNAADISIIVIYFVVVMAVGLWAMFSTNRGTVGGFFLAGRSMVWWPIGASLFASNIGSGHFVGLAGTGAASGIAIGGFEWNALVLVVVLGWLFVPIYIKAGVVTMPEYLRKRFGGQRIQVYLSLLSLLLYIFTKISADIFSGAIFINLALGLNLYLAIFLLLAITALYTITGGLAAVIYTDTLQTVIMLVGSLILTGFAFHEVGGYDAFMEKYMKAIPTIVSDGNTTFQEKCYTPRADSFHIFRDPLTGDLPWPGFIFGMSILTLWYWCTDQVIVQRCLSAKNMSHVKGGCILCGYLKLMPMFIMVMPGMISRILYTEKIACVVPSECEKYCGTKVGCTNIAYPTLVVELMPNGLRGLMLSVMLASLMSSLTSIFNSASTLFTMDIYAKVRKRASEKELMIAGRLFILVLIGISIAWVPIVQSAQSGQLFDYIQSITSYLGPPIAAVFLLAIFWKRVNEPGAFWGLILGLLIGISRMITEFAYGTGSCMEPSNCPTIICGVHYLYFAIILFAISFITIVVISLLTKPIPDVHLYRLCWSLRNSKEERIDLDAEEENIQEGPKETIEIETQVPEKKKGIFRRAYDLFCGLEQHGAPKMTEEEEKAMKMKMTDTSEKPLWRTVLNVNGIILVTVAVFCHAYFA

hSGLT2 = target: T2, hSGLT2 (Homo sapiens, UniProt P31639); experiment: SGLT2 inhibition assay for validation of screening hits and similar compounds (1‐NBD‐glucose uptake, CHO‐hSGLT2 cells); format: cell-based; set-up: activity: dose or concentration left out as unconfirmed; conditions: for remaining activity at 5 µM / remaining activity at 50 µM: 0.5 h, concentration not given, read-out: NORMALIZED SGLT2 ACTIVITY (%); for remaining activity at 5 µM / remaining activity at 50 µM / activity: mean; for SGLT2/SGLT1 ACTIVITY RATIO, first concentration / SGLT2/SGLT1 ACTIVITY RATIO, second concentration: ratio of normalized SGLT2 to SGLT1 activity; for activity: compound, normalized 1-NBD-glucose uptake, CHO-hSGLT2 cells; for SGLT2/SGLT1 ACTIVITY RATIO 5 uM Mean: ratio of normalized SGLT2 to SGLT1 activity at 5 uM; for inhibition at 50 µM: mean inhibition with 50 μmol/L inhibitor
T2 sequence (P31639 1-672): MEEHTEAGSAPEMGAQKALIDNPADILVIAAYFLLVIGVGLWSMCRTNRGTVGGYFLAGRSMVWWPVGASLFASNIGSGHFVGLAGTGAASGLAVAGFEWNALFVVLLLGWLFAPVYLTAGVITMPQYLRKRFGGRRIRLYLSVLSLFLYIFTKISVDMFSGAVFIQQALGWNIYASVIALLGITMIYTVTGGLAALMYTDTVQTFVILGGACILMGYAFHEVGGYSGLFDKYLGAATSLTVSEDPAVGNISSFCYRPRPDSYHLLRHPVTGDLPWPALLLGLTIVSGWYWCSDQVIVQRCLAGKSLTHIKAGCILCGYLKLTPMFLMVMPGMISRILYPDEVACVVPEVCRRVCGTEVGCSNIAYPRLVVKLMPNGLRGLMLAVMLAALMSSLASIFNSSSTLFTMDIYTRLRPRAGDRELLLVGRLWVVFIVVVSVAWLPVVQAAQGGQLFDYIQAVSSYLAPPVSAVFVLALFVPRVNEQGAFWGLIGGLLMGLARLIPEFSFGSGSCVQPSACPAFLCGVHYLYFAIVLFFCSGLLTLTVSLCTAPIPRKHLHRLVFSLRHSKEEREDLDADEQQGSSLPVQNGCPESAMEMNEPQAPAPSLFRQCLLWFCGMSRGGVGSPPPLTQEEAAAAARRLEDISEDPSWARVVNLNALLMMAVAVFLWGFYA

CNCCCN1c2ccccc2CCc2ccccc21 [desipramine, reference compound]
SGLT2/SGLT1‐50μmol/L (ratio of SGLT2 to SGLT1 activities with 50 μmol/L inhibitor) (SGLT1): 0.5 | SGLT1 inhibition (SGLT1): no inhibition

Cc1cccc(C)c1NC(=O)CN1CCCC1=O [Nefiracetam]
remaining activity at 5 µM (hSGLT2): 87% | remaining activity at 50 µM (hSGLT2): 84% | remaining activity at 5 µM (SGLT1): 95% | remaining activity at 50 µM (SGLT1): 95%

C1CCN2C[C@H]3C[C@H](CN4CCCC[C@@H]34)[C@H]2C1 [(+)-Sparteine]
SGLT2/SGLT1 ACTIVITY RATIO, first concentration (hSGLT2): 1.0 | SGLT2/SGLT1 ACTIVITY RATIO, second concentration (hSGLT2): 1.0

CC1(C)Oc2ccc3ccc(=O)oc3c2C[C@H]1O [(+)-Lomatin]
activity (hSGLT2): 115% | SGLT2/SGLT1 ACTIVITY RATIO 5 uM Mean (hSGLT2): 0.9 | activity (SGLT1): 124%

CC=C(C)C(=O)O[C@H]1[C@@H](OC(C)=O)c2c(ccc3ccc(=O)oc23)OC1(C)C [praeruptorin C]
activity (SGLT1): 90%

c1ccc(CO[C@H]2COCCN(Cc3ccccn3)C2)cc1
activity (hSGLT2): 110% | SGLT2/SGLT1 ACTIVITY RATIO 5 uM Mean (hSGLT2): 0.9 | activity (SGLT1): 120%

OC[C@H]1O[C@@H](Oc2cc(O)cc(/C=C/c3ccc(O)cc3)c2)[C@H](O)[C@@H](O)[C@@H]1O [Polydatin]
activity (hSGLT2): 97% | inhibition at 50 µM (hSGLT2): 18% | SGLT2/SGLT1 ACTIVITY RATIO 5 uM Mean (hSGLT2): 1.0 | SGLT2/SGLT1‐50μmol/L (ratio of SGLT2 to SGLT1 activities with 50 μmol/L inhibitor) (SGLT1): 1.5 | activity (SGLT1): 94% | inhibition at 50 µM (SGLT1): 46%

CCCCN1CCCCC1C(=O)Nc1c(C)cc(C)cc1C (centres unmarked)
remaining activity at 5 µM (hSGLT2): 73% | remaining activity at 50 µM (hSGLT2): 50% | remaining activity at 5 µM (SGLT1): 80% | remaining activity at 50 µM (SGLT1): 44%

Oc1ccc([C@H]2c3c(O)cc4c5c3[C@@H]([C@H](c3ccc(O)cc3)c3c(O)cc(O)cc3[C@H]5[C@@H](c3ccc(O)cc3)O4)[C@@H]2c2cc(O)cc(O)c2)cc1 [Viniferol D]
remaining activity at 5 µM (hSGLT2): 97% | remaining activity at 50 µM (hSGLT2): 65% | inhibition at 50 µM (hSGLT2): 35% | SGLT2/SGLT1‐50μmol/L (ratio of SGLT2 to SGLT1 activities with 50 μmol/L inhibitor) (SGLT1): 0.6 | remaining activity at 5 µM (SGLT1): 100% | remaining activity at 50 µM (SGLT1): 102% | SGLT1 inhibition (SGLT1): no effect on SGLT1

Oc1ccc([C@H]2Oc3cc(O)cc4c3[C@@H]2c2cc(O)cc3c2[C@@H](c2cc(O)cc5c2[C@@H]4[C@H](c2ccc(O)cc2)O5)[C@H](c2ccc(O)cc2)O3)cc1 [a-Viniferin]
remaining activity at 5 µM (hSGLT2): 104% | remaining activity at 50 µM (hSGLT2): 109% | remaining activity at 5 µM (SGLT1): 96% | remaining activity at 50 µM (SGLT1): 102%

O[C@@H]1CCCC[C@H]1N1CCC(c2ccccc2)CC1 (racemic) [vesamicol, reference compound]
remaining activity at 5 µM (hSGLT2): 91% | remaining activity at 50 µM (hSGLT2): 71% | remaining activity at 5 µM (SGLT1): 93% | remaining activity at 50 µM (SGLT1): 51% | SGLT1/2 inhibition stated in words (SGLT1; SGLT1 and/or SGLT2, discussion statements): showed SGLT1/2 inhibition

C/C=C(\C)C(=O)O[C@H]1[C@@H](OC(C)=O)c2c(ccc3ccc(=O)oc23)OC1(C)C [(+)‐praeruptorin A]
SGLT2/SGLT1‐50μmol/L (ratio of SGLT2 to SGLT1 activities with 50 μmol/L inhibitor) (SGLT1): 2

C/C=C(/C)C(=O)O[C@H]1C[C@@](C)(O)C(=O)[C@@H](OC(=O)/C(C)=C\C)[C@@]2(C)CC[C@@](O)(C(C)C)[C@H]12 [Laserpitin]
SGLT2/SGLT1 ACTIVITY RATIO, first concentration (hSGLT2): 1.0 | SGLT2/SGLT1 ACTIVITY RATIO, second concentration (hSGLT2): 1.0

NC(=O)C1CCCN1C(=O)C(CCC(=O)O)NC(=O)C1CCC(=O)N1 (stereo not drawn) [pGlu-Glu-Pro-Amide] ([pGlu]-Glu-Pro-NH2; configuration not given here)
SGLT2/SGLT1 ACTIVITY RATIO, first concentration (hSGLT2): 1.0 | SGLT2/SGLT1 ACTIVITY RATIO, second concentration (hSGLT2): 1.0

CCCCCCCCCCCCN(C)C [Dimethyldodecylamine]
SGLT2/SGLT1 ACTIVITY RATIO, first concentration (hSGLT2): 0.9 | SGLT2/SGLT1 ACTIVITY RATIO, second concentration (hSGLT2): 1.0

CN(C)CCCN1c2ccccc2CCc2ccccc21 [imipramine, reference compound]
SGLT2/SGLT1‐50μmol/L (ratio of SGLT2 to SGLT1 activities with 50 μmol/L inhibitor) (SGLT1): 0.4 | inhibition at 50 µM (SGLT1): 24%

Cc1cccc(C)c1NC(=O)C1CCCCN1C (centres unmarked) [mepivacaine, reference compound]
inhibition at 50 µM (SGLT1): 11%

C1CCN2C[C@@H]3C[C@@H](CN4CCCC[C@@H]34)[C@H]2C1 [(-)-Sparteine]
SGLT2/SGLT1 ACTIVITY RATIO, first concentration (hSGLT2): 1.0 | SGLT2/SGLT1 ACTIVITY RATIO, second concentration (hSGLT2): 0.9
